Test system: rat insulin-I gene promoter
Assay: On-line monitoring of insulin promoter-driven DsRed/GFP expression (prIns1.DsRed) in transfected HIT-T15 cells and islet cells
Assay type: cell-based, hamster (HIT-T15), rat (islet cells)
Conditions: for effect of inhibitor on insulin-stimulated insulin gene transcription / insulin promoter activity: 25 μM LY294002, 10 nM rapamycin, 400 nM AC, 100 μM HNMPA-(AM)3
Source text: Construction of prIns1.GFP has been described earlier (Leibiger et al., 1998a). Vector prIns1.DsRed was generated by exchanging the EGFP-expression cassette versus the DsRed-expression cassette obtained from pDsRed1-1 (Clontech). Plasmid prβGK.GFP (i.e. prβGK-278.GFP) was generated by exchanging the CAT-SV40pA-expression cassette of prβGK-278.CAT (Leibiger et al., 1994a) versus the EGFP-bGHpA-expression cassette obtained from pRcCMVI.GFP (Moede et al., 1999). […] All vector constructions were verified by DNA sequence analysis. Constructs for expression of the human Insulin Receptor A and B types, pCMVHIR(A) and pCMVHIR(B) and the control plasmid pCMVstop were kindly provided by Dr. A. Ullrich (Max-Planck-Institute for Biochemistry, Martinsried, Germany). Expression constructs pCMV5.PKBα, pCMV5.PKBαΔ308/437, pCMV5.PDK1 and pCMV5.PDK1-antisense were kindly provided by Drs. P. Cohen and D. R. Alessi (MRC Phosphorylation Unit, University of Dundee, UK).
Insulin-producing HIT-T15 cells were obtained from ATCC. HIT cells were reported to show glucose responsiveness at subphysiological concentrations between 0.1 and 2 mM (Sharma et al., 1995). HIT cells were grown in RPMI 1640 medium supplemented with 100 units/ml penicillin, 100 μg/ml streptomycin, 2 mM glutamine and 10% fetal calf serum at 5% CO2 and 37° C. Pancreatic islets were isolated from normally fed male Wistar rats and from mice by collagenase digestion. Isolated islets were incubated overnight at 5% CO2 and 37° C. in RPMI 1640 medium, supplemented as described above. Transfection of HIT-T15 and islet cells was performed overnight by the lipofectamine technique in RPMI 1640 medium, without serum and antibiotics. For on-line monitoring, cells were grown and transfected on 24-mm glass coverslips. Following transfection, HIT cells were cultured for 12-18 h in RPMI 1640 medium containing 0.1 mM glucose, 10% fetal calf serum and supplemented as above. Before stimulation, islets and islet cells were incubated for 2 h in RPMI 1640 medium, supplemented as above but containing 3 mM glucose. All expression constructs were prepared using the Qiagen Plasmid Maxi Kit (Qiagen), except those used to produce the adenoviruses which where purified by ultracentrifugation via a CsCI-gradient (as described in Sambrook et al, 1989).
All experiments were performed in RPMI 1640 medium, supplemented as above. Protein kinase inhibitors, antibodies or nifedipine were added to the culture medium 30 min prior to stimulation and were kept in the medium throughout stimulation. After stimulation islets, islet cells and HIT cells were cultured further at substimulatory glucose concentrations (0.1 mM for HIT cells and 3 mM for islets and islet cells). For RNA-analysis, islets and cells were harvested 60 min after start of stimulation, if not indicated otherwise. For analysis of protein kinase activities or tyrosine phosphorylation, cells were harvested immediately following stimulation.
Detection of fluorescence by digital imaging fluorescence microscopy was performed as described previously (Leibiger et al., 1998a; Leibiger et al., 1998b). Briefly, transfected cells were grown on 24-mm glass coverslips. After stimulation the coverslips were placed into a perifusion chamber which was mounted on an inverted microscope (Zeiss Axiovert 135TV). Temperature was kept at 37° C. and the cells were perfused with RPMI 1640 medium. The objective lens used was a Zeiss-Fluar ×40/1.30 oil Imm Korr. Fluorescence imaging was performed with a cooled charged-coupled device camera (CH250 with KAF 1400, Photometrics, Tucson, Ariz.) connected to an imaging system (Inovision) with fluorescence excitation from a SPEX fluorolog-2 CM1T11I spectrofluorometer (Spex Industries). The following filter-settings were used: for GFPs65T: excitation at 485 nm, a 505 nm dicroic mirror and an emission band-pass filter of 500-530 nm; for DsRed: excitation at 558 nm, a 565 nm dicroic mirror and a 580 nm long-pass filter for emission […]

Compound	insulin promoter-driven DsRed fluorescence upon insulin stimulation (5 mU/ml insulin, co-transfected cells)	amount of exogenous insulin necessary to trigger insulin gene promoter activity (transfected HIT-T15 cells, supplemented culture medium (FIG. 4B))	effect of inhibitor on insulin-stimulated insulin gene transcription / insulin promoter activity (5 mU/ml insulin)
insulin	elevation	5-10 μU insulin per ml	
CC(=O)OCOC(c1ccc2ccccc2c1)P(=O)(OCOC(C)=O)OCOC(C)=O (stereo not shown) [HNMPA-(AM)3]			abolished
autocamtide-2 related inhibitory peptide			abolished
